Usually T/C stands for the ratio of treated to control.

The results in this text go back to ChEMBL document CHEMBL1157274, “Two new maytansinoids from maytenus buchananii” (1999).

Experiment [1] deals with KB. Description: Cytotoxicity against human KB cells. The class given is functional.
Experiment [2] relates to P388. Kind of experiment: In vivo antitumor activity against mouse P388 cells at 0.1 to 1.6 ug/kg. The class given is functional.

`COc1cc2cc(c1Cl)N1CC(=O)C(C)(O)C(=O)N(C)[C@@H](C)C(=O)O[C@@H](CC1=O)[C@@]1(C)O[C@H]1[C@H](C)[C@@H]1C[C@@](O)(NC(=O)O1)[C@H](OC)/C=C/C=C(\C)C2` (some centres not stated) [MAYTANBICYCLINOL]: in experiment [1], the ED50 is on record as <1 ×10⁻⁵ ug/ml. Moreover, the T/C in experiment [2] stood at 140%.
